# Assays:
# [1] = system: APC−/−; P53−/−; TdTomato+ (AP-tdt) organoids; assay: Viability of AP-tdt murine colorectal cancer organoids, resazurin assay; format: cell-based; conditions: 72-h exposure (table title); read-out: IC50 against AP-tdt organoids
# Description: (§1) Colonic crypts were isolated and colon organoids were generated from the following mouse genotypes on a C57Bl/6 background: 1. Rosa-LSL-TdTomato (hereafter LSL-tdt), 2. P53^f1/f1; LSL-tdt, and 3. LSL-KRAS^G12D/WT; P53^fl/fl; LSL-tdt mice. Subsequently, the pSECC-APC plasmid (carrying Cre, Cas9, and sgAPC) was transfected into each of the above three genotypes of colon organoids. This transfection strategy generated, in a single step, the following colorectal cancer organoids, including 1. APC^−/−; TdTomato^+ (A-tdt), 2. APC^−/−; P53^−/−; TdTomato^+ (AP-tdt), and 3. APC^−/−; KRAS^G12D/WT; P53^−/−; TdTomato^+ (AKP-tdt). Organoids of the desired genotype were selected for by Wnt/Rspo withdrawal for APC^−/−, Nutlin-3 addition for P53^−/−, and EGF withdrawal for KRAS^G12D.
# (§2) Twenty four hours after seeding the organoids, a media change was performed and dose responses of oxaliplatin, doxorubicin and doxaliplatin were added. […] Organoids were cultured in Advanced DMEM/F12 supplemented with 2 mM GlutaMAX, 1% Penicillin-Streptomycin, 2% B27, and Y-27632 (10 μM).
# [2] = system: doxorubicin-resistant A2780ADR human ovarian cancer cell line; assay: Cell growth, resazurin assay, A2780ADR; format: cell-based; conditions: 72-h exposure
# Description: (§4) Cells were cultured in 10 mL of Advanced DMEM/F12 (ADMEM/F12), supplemented with 5% FBS, 2 mM GlutaMAX, and 1% Penicillin-Streptomycin in 10 cm tissue culture plates. Cells were then plated into 96-well plates with about 2.5×10^3 cells per well. Cells were plated with 200 μL per well of ADMEM/F12 supplemented with 5% FBS, 2 mM GlutaMAX, and 1% Penicillin-Streptomycin. Cells were treated with dose responses of doxorubicin, oxaliplatin, or doxaliplatin upon plating. The cells were then cultured for 72 hours following drug treatment, and cell growth was measured by resazurin assay.
# [3] = system: APC−/−; TdTomato+ (A-tdt) organoids; assay: Viability of A-tdt murine colorectal cancer organoids, resazurin assay; format: cell-based; conditions: 72-h exposure (table title); read-out: IC50 against A-tdt organoids
# Description: as §1, §2
# [4] = system: APC−/−; KRASG12D/WT; P53−/−; MSH2−/− (AKP-MSH2) organoids; assay: Viability of AKP-MSH2 murine colorectal cancer organoids; format: cell-based
# Description: (§3) To generate 4. APC^−/−; KRAS^G12D/WT; P53^−/−; (AKP) and 5. APC^−/−; KRAS^G12D/WT; P53^−/−; MSH2^−/− (AKP-MSH2) colon cancer organoids, colonic crypts were isolated and colon organoids were generated from the following mouse genotypes on a C57Bl/6 background: 4. LSL-KRAS^G12D/WT; P53^fl/fl mice and 5. LSL-KRAS^G12D; P53^fl/fl; MSH2^fl/fl mice. Subsequently, the pSECC-APC plasmid (carrying Cre, Cas9, and sgAPC) was transfected into each of the above two genotypes of colon organoids. Following pSECC-APC transfection, Wnt/Rspo withdrawal was performed and surviving (APC^−/−) single organoids were cloned and PCR genotyped for Cre mediated deletion of p53 and/or MSH2, and for Cre mediated activation of oncogenic KRAS^G12D.
# as §2
# [5] = system: HL60 human leukemia cell line; assay: Cell growth, resazurin assay, HL60; format: cell-based; conditions: 96-h exposure (table title)
# Description: as §4
# [6] = system: MDA-MB-231 human breast adenocarcinoma; assay: Cell growth, resazurin assay, MDA-MB-231; format: cell-based; conditions: 96-h exposure (table title)
# Description: as §4
# [7] = system: A549 human lung carcinoma; assay: Cell growth, resazurin assay, A549; format: cell-based; conditions: 96-h exposure (table title)
# Description: as §4
# U2OS human osteosarcoma = assay: Cell growth, resazurin assay, U2OS; format: cell-based; conditions: 96-h exposure (table title); read-out: IC50 U2OS (bone)
# Description: as §4
# [8] = system: APC−/−; KRASG12D/WT; P53−/−; TdTomato+ (AKP-tdt) organoids; assay: Viability of AKP-tdt murine colorectal cancer organoids, resazurin assay; format: cell-based; conditions: 72-h exposure (table title); read-out: IC50 against AKP-tdt organoids
# Description: as §1, §2
# [9] = system: A-tdt, AP-tdt, and AKP-tdt murine colorectal cancer organoids; assay: Cellular toxicity across the A-tdt, AP-tdt and AKP-tdt organoid series; format: cell-based; conditions: series of A-tdt
# Description: as §1
# Twenty four hours after seeding the organoids, a media change was performed and dose responses of oxaliplatin, doxorubicin and doxaliplatin were added. Forty eight hours after treatment, cell growth was evaluated by resazurin assay. Organoids were cultured in Advanced DMEM/F12 supplemented with 2 mM GlutaMAX, 1% Penicillin-Streptomycin, 2% B27, and Y-27632 (10 μM).
# [10] = system: APC−/−; KRASG12D/WT; P53−/− (AKP) organoids; assay: Viability of AKP murine colorectal cancer organoids; format: cell-based
# Description: as §3, §2
# [11] = system: HT-29 human colorectal adenocarcinoma; assay: Cell growth, resazurin assay, HT-29; format: cell-based; conditions: 96-h exposure (table title); read-out: IC50 HT-29 (colon)
# Description: as §4
# [12] = system: A2780 human ovarian cancer cell line
# Description: ICP-MS was performed on an Agilent 7900 ICP-MS in helium mode.
# The cells in a six-well plate were treated with oxaliplatin, doxaliplatin, or a mixture of doxorubicin and oxaliplatin at indicated concentration in 2 mL of Advanced DMEM/F12 (ADMEM/F12), supplemented with 5% FBS, 2 mM GlutaMAX, and 1% Penicillin-Streptomycin. After three hours, the media were removed. The cells were washed with xl PBS buffer containing EDTA (100 μM, 4 mL×2). To each well, MilliQ water (1.0 mL) was added. After 15 min, the cells were suspended. A portion of the resulting cell lysate (900 μL) was transferred to an Eppendorf tube. The samples were frozen in liquid nitrogen and thawed at room temperature. This procedure was repeated for three times. The insoluble lysate was pelleted (10000 rpm for 10 min). […] Pierce 660 nm Protein solution (200 μL) was added to each well. An aliquot of the lysate (14.2 μL) was added to each well. The plate was shaken and read on a plate reader. The remaining samples were frozen at liquid nitrogen temperature and lyophilized. The dried material was digested with Aristar® ultrapure concentrated nitric acid (70%) at 70° C. for one hour. An aliquot of this solution (142 μL) was mixed with molecular biology grade water (2000 μL) and a terbium internal standard (40 μL, 100 ppb). The platinum content was then determined using an Agilent 7900 ICP-MS in helium mode. The concentration of platinum in the cells was normalized to measured protein concentration described above.
compound,measurement,setting,value
"COc1cccc2c1C(=O)c1c(O)c3c(c(O)c1C2=O)CC(O)(C(=O)CO)CC3OC1CC(N)C(N)C(C)O1.O=C1[O][Pt][O]C1=O (centres unmarked) [DoxPt, Doxaliplatin]",IC50,[1],410 nM
same,IC50,[2],72 nM
same,IC90,[2],490 nM
same,IC95,[2],670 nM
same,IC50,[3],460 nM
same,IC50,"[4]; 72-h exposure, read-out: IC50 against AKP-MSH2 organoids",78 nM
same,Potency relative to oxaliplatin (by IC50),[4]; AKP-MSH2 organoids,28 fold
same,IC50,[5],160 nM
same,IC50,[6],110 nM
same,IC50,[7],100 nM
same,IC50,U2OS human osteosarcoma,52 nM
same,IC50,[8],430 nM
same,Cellular toxicity relative to oxaliplatin,[9],three to ten-fold higher cellular toxicity than oxaliplatin
same,IC50,"[10]; 72-h exposure, read-out: IC50 against AKP organoids",110 nM
same,Potency relative to oxaliplatin (by IC50),[10]; AKP organoids,13 fold
same,IC50,[11],330 nM
same,Platinum concentration in treated cells relative to oxaliplatin-treated cells,[12],approximately ten times higher than in oxaliplatin-treated cells

# — patent US11203608B2, “Platinum-containing compounds, and related compositions and uses thereof” (Massachusetts Institute of Technology, priority 2019, dated 2021)
